Five compounds from patent EP0908457B1, “3-(1,2-benzisothiazol- and isoxazol-5-Y1)-2,4(1H,3H)-pyrimidinedione or thione and 3-(1,2-benzisothiazol- and isoxazol-5-y1)-4(3H)-pyrimidinone or thione herbicidal agents” (BASF AKTIENGESELLSCHAFT, priority 1997, dated 1999) can be followed below.

Holding throughout (assay type): in vivo
For one assay, the system named is Sagittaria pygmaea, L. Description: Preemergence weed control under flooded paddy conditions, SAGPY (Arrowhead (Pygmaea)). The conditions noted are these: preemergence, flooded paddy, rated three to four weeks after treatment.
The subject of a further assay is Cyperus iria. Description: Preemergence weed control under flooded paddy conditions, CYPIR (Rice Flatsedge). The conditions noted are these: preemergence, flooded paddy, rated three to four weeks after treatment.
Assay [1] has as its system Cyperus serotinus, Rottb. Description: Preemergence weed control under flooded paddy conditions, CYPSE (Flatsedge). The conditions noted are these: preemergence, rated three to four weeks after treatment.
Assay [2] concerns Monochoria vaginalis, Presl. Nature of the assay: Preemergence weed control under flooded paddy conditions, MOOVA (Monochoria). Conditions: preemergence, flooded paddy, rated three to four weeks after treatment.
Assay [3] concerns Echinochloa oryzoides (Ard.) Fritsch. Description: Preemergence weed control under flooded paddy conditions, ECHORC (Watergrass (Calif.)). The conditions noted are these: preemergence, flooded paddy, rated three to four weeks after treatment.

Each structure is given as a SMILES string.

Take `COC(=O)COc1cc(C)c(I)cc1-c1nsc2ccc(-n3c(=O)cc(C(F)(F)F)n(C)c3=O)cc12` [Example 469, Acetic acid, {{6-{5-[3,6-dihydro-3-methyl-2,6-dioxo-4-(trifluoromethyl)-1(2H)-pyrimidinyl]-1,2-benzisothiazol-3-yl}-4-iodo-m-tolyl}oxy}-, methyl ester]: the SAGPY herbicidal rating with Sagittaria pygmaea, L. (0.0320 kg/ha) was 0.0; with Sagittaria pygmaea, L. (0.0620 kg/ha), 1.5; in the assay on Sagittaria pygmaea, L. (0.1250 kg/ha) it was 2.5; in the assay with Sagittaria pygmaea, L. (0.2500 kg/ha) it was 3.0. Further, the CYPIR herbicidal rating in the assay on Cyperus iria (0.0320 kg/ha) amounted to 0.0; in the assay with Cyperus iria (0.0620 kg/ha), 1.5; in the assay on Cyperus iria (0.1250 kg/ha) it was 6.5; with Cyperus iria (0.2500 kg/ha), 7.0. Moreover, the CYPSE herbicidal rating in assay [1] (0.0320 kg/ha) was 0.0; in assay [1] (0.0620 kg/ha) it was 4.5; in assay [1] (0.1250 kg/ha) it was 9.0; in assay [1] (0.2500 kg/ha) it was 6.0. Further, the MOOVA herbicidal rating is given as 2.0 in assay [2] (0.0320 kg/ha), 4.5 in assay [2] (0.0620 kg/ha), 5.0 in assay [2] (0.1250 kg/ha) and 8.0 in assay [2] (0.2500 kg/ha). The ECHORC herbicidal rating turned out to be 7.0 in assay [3] (0.0320 kg/ha), 9.0 in assay [3] (0.0620 kg/ha), 9.0 in assay [3] (0.1250 kg/ha) and 9.0 in assay [3] (0.2500 kg/ha).
In the case of `COC(=O)C(C)Oc1cc(C)c(I)cc1-c1nsc2ccc(-n3c(=O)cc(C(F)(F)F)n(C)c3=O)cc12` (centres unmarked) [Example 470, Propionic acid, 2-{{6-{5-[3,6-dihydro-3-methyl-2,6-dioxo-4-(trifluoromethyl)-1(2H)-pyrimidinyl]-1,2-benzisothiazol-3-yl}-4-iodo-m-tolyl}oxy}-, methyl ester], the SAGPY herbicidal rating in the assay on Sagittaria pygmaea, L. (0.0320 kg/ha) is 0.0; in the assay with Sagittaria pygmaea, L. (0.0620 kg/ha), 0.0; in the assay on Sagittaria pygmaea, L. (0.1250 kg/ha) it was 0.0; in the assay with Sagittaria pygmaea, L. (0.2500 kg/ha), 1.5. In addition, the CYPIR herbicidal rating was found to be 0.0 in the assay on Cyperus iria (0.0320 kg/ha), 0.0 in the assay with Cyperus iria (0.0620 kg/ha), 6.0 with Cyperus iria (0.1250 kg/ha) and 7.0 in the assay on Cyperus iria (0.2500 kg/ha). For the same compound, the CYPSE herbicidal rating in assay [1] (0.0320 kg/ha) is 0.0; in assay [1] (0.0620 kg/ha), 0.0; in assay [1] (0.1250 kg/ha), 0.0; in assay [1] (0.2500 kg/ha) it was 4.5. For the same compound, the MOOVA herbicidal rating was 1.5 in assay [2] (0.0320 kg/ha), 2.0 in assay [2] (0.0620 kg/ha), 2.0 in assay [2] (0.1250 kg/ha) and 3.0 in assay [2] (0.2500 kg/ha). The ECHORC herbicidal rating came out at 8.5 in assay [3] (0.0320 kg/ha), 9.0 in assay [3] (0.0620 kg/ha), 9.0 in assay [3] (0.1250 kg/ha) and 9.0 in assay [3] (0.2500 kg/ha).
On to `CCC(C(=O)OCc1nsc2ccc(-n3c(=O)cc(C(F)(F)F)n(C)c3=O)cc12)c1ccccc1` (centres unmarked) [Example 473, 2,4(1H,3H)-Pyrimidinedione, 3-[3-(hydroxymethyl)-1,2-benzisothiazol-5-yl]-1-methyl-6-(trifluoromethyl)-, 2-phenylbutyrate (ester)], for which the SAGPY herbicidal rating is 0.0 in the assay on Sagittaria pygmaea, L. (0.0320 kg/ha); 0.0 in the assay on Sagittaria pygmaea, L. (0.0620 kg/ha); 2.0 with Sagittaria pygmaea, L. (0.1250 kg/ha); 3.0 in the assay on Sagittaria pygmaea, L. (0.2500 kg/ha). For the same compound, the CYPIR herbicidal rating in the assay on Cyperus iria (0.0320 kg/ha) came out at 2.0; in the assay with Cyperus iria (0.0620 kg/ha) it was 4.0; in the assay with Cyperus iria (0.1250 kg/ha) it was 6.0; in the assay with Cyperus iria (0.2500 kg/ha) it was 8.0. The CYPSE herbicidal rating is recorded as 0.0 in assay [1] (0.0320 kg/ha), 0.0 in assay [1] (0.0620 kg/ha) and 5.0 in assay [1] (0.2500 kg/ha). For the same compound, the MOOVA herbicidal rating in assay [2] (0.0320 kg/ha) is reported as 4.0; in assay [2] (0.0620 kg/ha) it was 6.0; in assay [2] (0.1250 kg/ha), 7.0; in assay [2] (0.2500 kg/ha), 7.0. For the same compound, the ECHORC herbicidal rating stood at 1.0 in assay [3] (0.0320 kg/ha), 2.0 in assay [3] (0.0620 kg/ha), 2.0 in assay [3] (0.1250 kg/ha) and 4.0 in assay [3] (0.2500 kg/ha).
Consider `Cn1c(C(F)(F)F)cc(=O)n(-c2ccc3snc(COC(=O)c4cc(Cl)nc(Cl)c4)c3c2)c1=O` [Example 474, 2,4(1H,3H)-Pyrimidinedione, 3-[3-(hydroxymethyl)-1,2-benzisothiazol-5-yl]-1-methyl-6-(trifluoromethyl)-, 2,6-dichloroisonicotinate (ester)], for which the SAGPY herbicidal rating stood at 0.0 in the assay on Sagittaria pygmaea, L. (0.0320 kg/ha); 0.0 in the assay with Sagittaria pygmaea, L. (0.0620 kg/ha); 0.0 with Sagittaria pygmaea, L. (0.1250 kg/ha); 0.0 in the assay with Sagittaria pygmaea, L. (0.2500 kg/ha). In addition, the CYPIR herbicidal rating with Cyperus iria (0.0320 kg/ha) came to 2.0; in the assay with Cyperus iria (0.0620 kg/ha), 5.0; with Cyperus iria (0.1250 kg/ha), 4.0; in the assay with Cyperus iria (0.2500 kg/ha), 6.0. The CYPSE herbicidal rating in assay [1] (0.0320 kg/ha), in assay [1] (0.0620 kg/ha), in assay [1] (0.1250 kg/ha) and in assay [1] (0.2500 kg/ha) was 0.0 throughout. Also, the MOOVA herbicidal rating worked out at 2.0 in assay [2] (0.0320 kg/ha), 3.0 in assay [2] (0.0620 kg/ha), 7.0 in assay [2] (0.1250 kg/ha) and 9.0 in assay [2] (0.2500 kg/ha). In addition, the ECHORC herbicidal rating in assay [3] (0.0320 kg/ha), in assay [3] (0.0620 kg/ha), in assay [3] (0.1250 kg/ha) and in assay [3] (0.2500 kg/ha) was 0.0 in each case.
Consider `Cn1c(C(F)(F)F)cc(=O)n(-c2ccc3snc(COC(=O)c4ccno4)c3c2)c1=O` [Example 475, 2,4(1H,3H)-Pyrimidinedione, 3-[3-(hydroxymethyl)-1,2-benzisothiazol-5-yl]-1-methyl-6-(trifluoromethyl)-, 5-isoxazolecarboxylate (ester)], for which the SAGPY herbicidal rating in the assay with Sagittaria pygmaea, L. (0.0320 kg/ha) came to 0.0; in the assay with Sagittaria pygmaea, L. (0.0620 kg/ha) it was 4.0; with Sagittaria pygmaea, L. (0.1250 kg/ha) it was 6.0; in the assay with Sagittaria pygmaea, L. (0.2500 kg/ha), 7.0. For the same compound, the CYPIR herbicidal rating with Cyperus iria (0.0320 kg/ha) came to 4.0; in the assay with Cyperus iria (0.0620 kg/ha), 6.0; with Cyperus iria (0.1250 kg/ha), 9.0; with Cyperus iria (0.2500 kg/ha), 9.0. Moreover, the CYPSE herbicidal rating is recorded as 0.0 in assay [1] (0.0320 kg/ha), 5.0 in assay [1] (0.1250 kg/ha) and 7.0 in assay [1] (0.2500 kg/ha). Also, the MOOVA herbicidal rating in assay [2] (0.0320 kg/ha), in assay [2] (0.0620 kg/ha), in assay [2] (0.1250 kg/ha) and in assay [2] (0.2500 kg/ha) was 9.0 in each case. In addition, the ECHORC herbicidal rating was 0.0 in assay [3] (0.0320 kg/ha), 0.0 in assay [3] (0.0620 kg/ha), 2.0 in assay [3] (0.1250 kg/ha) and 3.0 in assay [3] (0.2500 kg/ha).
